# Source: ChEMBL document CHEMBL3727353, “Small-molecule choline kinase inhibitors as anti-cancer therapeutics” (2011)
# Columns and labels:
# [1] = Terminal half life in Balbc mouse at 5 mg/kg, iv by LC-MS/MS analysis; format: ADME, organism-based; conditions: BALB/c, in vivo, read-out: beta t1/2 (converted)
# [2] = AUC (0 to infinity) in Balbc mouse at 5 mg/kg, iv by LC-MS/MS analysis; format: ADME, organism-based; design: dose 5 mg/kg, time infinity, route intravenous; conditions: BALB/c, in vivo
# [3] = Clearance in Balbc mouse at 5 mg/kg, iv by LC-MS/MS analysis; format: ADME, organism-based; conditions: BALB/c, in vivo
# K562 = assay: Antiproliferative activity against human K562 cells after 72 hrs by alamar blue assay; format: functional, cell-based; conditions: K562, 72 h
# MDA-MB-231 = assay: Antiproliferative activity against human MDA-MB-231 cells after 72 hrs by alamar blue assay; format: functional, cell-based; conditions: MDA-MB-231, 72 h
half-life [1],AUC(0-inf) [2],clearance [3],IC50 (K562),IC50 (MDA-MB-231),SMILES
9 min,1290 ng·h/mL,129 mL/min/kg,,,CCOc1ccc(-c2nnc(SCC(=O)Nc3cc(C)cc(C)c3)[nH]2)cc1F
,,,37 µM,78.7 µM,COc1ccc(-c2nnc(SCC(=O)Nc3ccc(F)cc3F)[nH]2)cc1
